Structures can show the parent of a compound that is named as a salt.
Target: T1, γ-Secretase (Homo sapiens, UniProt P49768)
T1 construct: transfected H4 (human neuroglioma) cells stably expressing constructs containing wild-type and mutant forms of β-APP; endogenous in cells; host or cells: H4 human neuroglioma cells, stably transfected with beta-APP (the substrate, not the enzyme)
Assay: Inhibition of γ-secretase: ELISA of β-AP made by transfected H4 cells in culture
Assay type: cell-based
Settings: H4 (human neuroglioma) cells expressing β-APP (Swedish variant typically), approximately 16 hours incubation, β-AP in conditioned medium by ELISA
Excerpt: Production and detection of β-AP made by cells in culture. The use of transfected H4 (human neuroglioma) cells stably expressing constructs containing wild-type and mutant forms of β-APP have been used to identify inhibitors of β-AP production. The Swedish variant of β-APP produces 5-7 fold more β-AP than the wild type and is typically used due to its enhanced signal. […] The capture antibody is typically a mouse monoclonal (IgG1/kβ-APPa). The antibody recognizes the carboxyl terminal epitope of β-AP. The specificity of the capture antibody ensures measurement of β-AP without interference by other secreted β-APP fragments that share amino acid sequence (β-AP1-16) with β-AP. The detecting antibody is typically an affinity purified rabbit polyclonal antibody, specific for the amino terminus of β-AP. In the cell-based assay conditioned medium from H4 cells is tested by ELISA for the quantity of β-AP present. The cell-based assay can be used to identify compounds that inhibit β-AP production. The assay should detect agents that inhibit cleavage at the β-secretase and/or the γ-secretase cleavage site as well as detecting any agent that interferes with the production and/or release of β-AP.
A typical ELISA-based assay requires plating of the transfected cells at a density sufficient for the rapid detection of the secreted β-AP (experimentally predetermined for a particular stable cell population) in a 96-well format. Cells are plated for at least six hours prior to the introduction of the test compound at which time the growth medium is replaced by fresh medium containing the agent to be tested. Test agents may typically consist of synthetic compounds, secondary metabolites from bacterial or fungal fermentation extracts, or extracts from plant or marine samples. All synthetic agents are initially screened at doses ranging from 10-100 μM or in the case of extracts at sufficient dilution to minimize cytotoxicity. Incubation of the cells with the test agent will continue for approximately 16 hours at which time equal aliquots of media from each sample well is removed and placed into a previously prepared ELISA plate for β-AP quantitation. The ELISA is carried out in a manner described by others (Haass, et al., 1992; Hawlow and Lane, 1988) and the β-AP signal quantitated. Results are obtained by analysis of the ELISA plate following development and comparison to the mock treated cell populations and samples in which known amounts of β-AP were added to construct a standard concentration curve. […] If a compound is found to be active, then a dose response experiment is performed to determine the lowest dose of compound necessary to elicit the inhibition of the production of β-AP.

SMILES	Activity Rating (Inhibition of γ-Secretase)
CCCCNC(=O)[C@@H](C[C@H](O)[C@H](CC1CCCCC1)NCc1cccc(OC)c1)C(C)C (relative stereo) [Example 37, [αS-(αR*,γR*,δR*)]N-Butyl-γ-hydroxy-δ-[[(3-methoxyphenyl)methyl]amino]-α-(1-methylethyl)cyclohexanehexanamide hydrochloride]	++ (++ > 10 & < = 25)
CCCCNC(=O)[C@@H](C[C@H](O)[C@H](CC1CCCCC1)NCCCC1CC1)C(C)C (relative stereo) [Example 46, [αS(αR*,γR*,δR*)]-N-Butyl-δ-[(3-cyclopropyl)propyl]amino-γ-hydroxy-α-(1-methylethyl)cyclohexanehexanamide hydrochloride]	+++ (+++ < = 10)
CSCCCNC(=O)[C@@H](C[C@H](O)[C@H](CC1CCCCC1)NCCCC(C)C)C(C)C (relative stereo) [Example 32, [αS-(αR*,γR*,δR*)]γ-hydroxy-α-(1-methylethyl)-δ-[(4-methylpentyl)amino]-N-[3-(methylthio)propyl]cyclohexanehexanamide hydrochloride]	+++ (+++ < = 10)
CC(C)CNC(=O)[C@@H](C[C@H](O)[C@H](CC1CCCCC1)NC1CCCC(C)C1)C(C)C (relative stereo) [Example 42, [αS(αR*,γR*,δR*)]-γ-Hydroxy-δ-[(3-methylcyclohexyl)amino]-α-(1-methylethyl)-N-(2-methylpropyl)cyclohexanehexanamide]	+++ (+++ < = 10)
C=C(C)C[C@H](C[C@H](O)[C@H](CC1CCCCC1)NCCCC(C)C)C(=O)NCCCC (relative stereo) [Example 21, [αS-(αR*,γR*,δR*)]N-Butyl-γ-hydroxy-α-(2-methyl-2-propenyl)-δ-[(4-methylpentyl)amino]cyclohexanehexanamide hydrochloride]	+++ (+++ < = 10)
CCCCNC(=O)[C@H](CC(C)C)C[C@H](O)[C@H](CC1CCCCC1)NCCCC(C)C (relative stereo) [Example 22, [αS-(αR*,γR*,δR*)]N-Butyl-γ-hydroxy-δ-[(4-methylpentyl)amino]-α-(2-methylpropyl)cyclohexanehexanamide hydrochloride]	+++ (+++ < = 10)
CCCCNC(=O)[C@@H](C[C@H](O)[C@H](CC1CCCCC1)NCCCCC(C)C)C(C)C (relative stereo) [Example 34, [αS-(αR*,γR*,δR*)]N-Butyl-γ-hydroxy-α-(1-methylethyl)-δ-[(5-methylhexyl)amino]cyclohexanehexanamide hydrochloride]	+++ (+++ < = 10)
